Measurements published in ChEMBL document CHEMBL1144925, “Binding structures and potencies of oxidosqualene cyclase inhibitors with the homologous squalene-hopene cyclase” (J Med Chem, 2003).

Experiments:
[1] = target: T1, Lanosterol synthase (Homo sapiens, UniProt P48449); assay: Inhibitory activity against Oxidosqualene-lanosterol cyclase from human liver microsomes
T1 sequence (P48449 whole entry): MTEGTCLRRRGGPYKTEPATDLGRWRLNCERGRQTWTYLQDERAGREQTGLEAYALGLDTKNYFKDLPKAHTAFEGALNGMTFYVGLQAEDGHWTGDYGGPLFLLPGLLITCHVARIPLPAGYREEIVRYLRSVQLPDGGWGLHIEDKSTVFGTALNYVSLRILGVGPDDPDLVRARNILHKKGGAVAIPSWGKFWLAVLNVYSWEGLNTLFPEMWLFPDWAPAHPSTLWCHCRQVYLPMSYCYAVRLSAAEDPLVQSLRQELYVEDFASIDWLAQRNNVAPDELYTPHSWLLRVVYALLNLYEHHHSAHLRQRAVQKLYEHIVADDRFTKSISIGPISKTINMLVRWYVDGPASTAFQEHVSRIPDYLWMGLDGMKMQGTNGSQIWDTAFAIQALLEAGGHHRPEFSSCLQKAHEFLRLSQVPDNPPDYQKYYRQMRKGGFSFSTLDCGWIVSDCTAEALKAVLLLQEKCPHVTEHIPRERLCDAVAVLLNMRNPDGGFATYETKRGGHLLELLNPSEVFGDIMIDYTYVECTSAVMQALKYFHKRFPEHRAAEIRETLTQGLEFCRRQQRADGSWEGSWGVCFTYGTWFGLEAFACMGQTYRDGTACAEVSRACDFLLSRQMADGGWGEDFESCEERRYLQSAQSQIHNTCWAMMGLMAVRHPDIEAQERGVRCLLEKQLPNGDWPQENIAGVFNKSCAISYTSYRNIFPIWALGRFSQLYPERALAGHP

[2] = target: T2, Squalene--hopene cyclase (Alicyclobacillus acidocaldarius subsp. acidocaldarius (strain ATCC27009 / DSM 446 / 104-1A) (Bacillus acidocaldarius), UniProt P33247); assay: Inhibitory activity against squalene hopene cyclase from Alicyclobacillus acidocaldarius
T2 sequence (P33247 whole entry): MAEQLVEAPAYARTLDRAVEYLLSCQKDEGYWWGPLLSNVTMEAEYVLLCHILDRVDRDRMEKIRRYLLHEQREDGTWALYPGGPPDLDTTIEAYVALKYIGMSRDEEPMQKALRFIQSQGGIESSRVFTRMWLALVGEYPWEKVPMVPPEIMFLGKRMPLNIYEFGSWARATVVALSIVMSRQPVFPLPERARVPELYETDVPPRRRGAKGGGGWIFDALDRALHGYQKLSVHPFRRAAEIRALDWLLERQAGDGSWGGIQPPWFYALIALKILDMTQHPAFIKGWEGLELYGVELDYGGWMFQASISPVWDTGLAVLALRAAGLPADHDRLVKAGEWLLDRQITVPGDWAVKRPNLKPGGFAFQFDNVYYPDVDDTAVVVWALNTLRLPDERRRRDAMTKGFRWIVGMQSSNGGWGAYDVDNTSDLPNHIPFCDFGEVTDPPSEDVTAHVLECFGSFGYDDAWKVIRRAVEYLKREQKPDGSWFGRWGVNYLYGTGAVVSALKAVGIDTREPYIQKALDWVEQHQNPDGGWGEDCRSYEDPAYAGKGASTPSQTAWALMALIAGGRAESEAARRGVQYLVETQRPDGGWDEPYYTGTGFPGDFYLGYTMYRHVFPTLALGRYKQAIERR

| IC50 [1] [nM] | IC50 [2] [nM] | Structure (SMILES) |
| --- | --- | --- |
| 1900 |  | C=CCN(C)CCCCCCOc1ccc(-c2nsc3cc(Br)ccc23)cc1 |
| 380 | 75 | C=CCN(C)CCCCCCOc1ccc2c(-c3ccc(Br)cc3)noc2c1 |
| 610 |  | C=CCN(C)CCCCCCOc1ccc2c(-c3ccc(Br)cc3)coc2c1 |
| 3.5 |  | C=CCN(C)CCCCCCOc1ccc2c(-c3ccc(Br)cc3)nccc2c1 |
| 500 |  | C=CCN(C)C/C=C/COc1ccc2c(-c3ccc(Br)cc3)coc2c1 |
| 39 |  | C=CCN(C)CCCCCCOc1ccc2c(-c3ccc(Br)cc3)n[nH]c2c1 |
| 19.6 |  | C=CCN(C)CCCCCCOc1ccc2c(-c3ccc(Br)cc3)nn(C)c2c1 |
| 4.1 | 172 | C=CCN(C)CCCCCCOc1ccc2c(c1)CON=C2c1ccc(Br)cc1 |
| 2.9 |  | C=CCN(C)CCCCCCOc1ccc2c(-c3ccc(Br)cc3)nsc2c1 |

Further lines, the compound ahead of its results:

| Structure (SMILES) | IC50 [1] [nM] | IC50 [2] [nM] |
| --- | --- | --- |
| CN(CCCCCCOC1CCN(C(=O)c2ccc(F)cc2)CC1)C1CC1 | 48 | 760 |
| CN(C(=O)Oc1ccc(Cl)cc1)[C@H]1CC[C@H](c2ccc(C[N+]3([O-])CCCCC3)cc2)CC1 | 640 | 123 |
| CN(C[C@H]1C[C@@H]1COc1ccc(C(=O)c2ccc(Br)cc2)c(F)c1)C1CC1 | 439 | 50 |
| CN(CCCCCCOc1ccc(C(=O)c2ccc(Br)cc2)c(F)c1)C1CC1 | 98 | 38 |
| C=CCN(C[C@H]1C[C@@H]1COc1ccc(C(=O)c2ccc(Br)cc2)cc1)C1CC1 | 223 |  |
| C=CCN(C)CCCCCCOc1ccc2c(C)nn(C)c2c1 | 240 | 332 |
| C=CCN(C)CCCCCCOc1ccc(C(=O)c2ccc(Br)cc2)cc1 | 5.4 | 96 |
| O=C(c1ccc(Cl)cc1)N1CCC(=Cc2ccc(C3=NCCO3)cc2)CC1 | 36 | 2800 |
| CN(C[C@H]1C[C@@H]1COc1ccc(C(=O)c2ccc(Br)cc2)cc1)C1CC1 | 22 | 62 |
| C=CCN(C)C/C=C/COc1ccc(C(=O)c2ccc(Br)cc2)cc1 | 3 | 40 |
| C=CCN(C)C/C=C/COc1ccc(-c2nsc3cc(Br)ccc23)cc1 | 1860 | 130 |
| C=CCN(C)Cc1ccc(-c2ccc(C(=O)c3ccc(Br)cc3)cc2)cc1 | 16 |  |
| C=CCN(C)C/C=C/COc1ccc2c(-c3ccc(Br)cc3)csc2c1 | 13.5 | 75 |
| C=CCN(C)C/C=C/COc1ccc2c(-c3ccc(Br)cc3)noc2c1 | 29 | 49 |
| C=CCN(C)CCCCCCOC1CCN(C(=O)c2ccc(F)cc2)CC1 | 71 | 1200 |
| CN(C(=O)Oc1ccc(Cl)cc1)[C@H]1CC[C@H](c2ccc(CN3CCCCC3)cc2)CC1 | 11.3 |  |
